Assay results taken from PMC5218480 (PLoS ONE, 2017).

System: MV-4-11 cells
Assay: Gene expression microarray analysis (Affymetrix PrimeView) and GSEA
Assay type: cell-based, human
Design: RFU PODN (11730768_x_at) / Fold change /veh PODN (11730768_x_at) / RFU LINC00158 (11744669_a_at) / Fold change /veh LINC00158 (11744669_a_at) / RFU DUSP10 (11751237_a_at) / Fold change /veh DUSP10 (11751237_a_at) / RFU ID3 (11757404_x_at) / Fold change /veh ID3 (11757404_x_at) / RFU PLEKHG5 (11737974_s_at) / Fold change /veh PLEKHG5 (11737974_s_at) / RFU LRRC4B (11730491_at) / Fold change /veh LRRC4B (11730491_at) / RFU GIMAP4 (11747438_a_at) / Fold change /veh GIMAP4 (11747438_a_at) / RFU KRT8 (11758183_x_at) / Fold change /veh KRT8 (11758183_x_at) / RFU CNN1 (11734310_a_at) / Fold change /veh CNN1 (11734310_a_at) / RFU VPS37D (11726825_at) / Fold change /veh VPS37D (11726825_at) / RFU C10orf10 (11716522_x_at) / Fold change /veh C10orf10 (11716522_x_at) / RFU KIR2DL2 /// KIR2DL4 /// KIR2DL5A /// KIR2DL5B /// KIR2DS1 /// KIR2DS2 /// KIR2DS3 /// KIR2DS4 /// KIR3DL3 /// KIR3DL3 /// KIR3DS1 (11738374_at) / Fold change /veh KIR2DL2 /// KIR2DL4 /// KIR2DL5A /// KIR2DL5B /// KIR2DS1 /// KIR2DS2 /// KIR2DS3 /// KIR2DS4 /// KIR3DL3 /// KIR3DL3 /// KIR3DS1 (11738374_at) / RFU C1QL1 (11718748_at) / Fold change /veh C1QL1 (11718748_at) / RFU TMPRSS4 (11747572_a_at) / Fold change /veh TMPRSS4 (11747572_a_at) / RFU HAMP (11756126_x_at) / Fold change /veh HAMP (11756126_x_at) / RFU RNFT2 (11725882_a_at) / Fold change /veh RNFT2 (11725882_a_at) / RFU NR4A2 (11747474_a_at) / Fold change /veh NR4A2 (11747474_a_at) / RFU ABCC12 (11746883_a_at) / Fold change /veh ABCC12 (11746883_a_at) / RFU TMEM136 (11760407_x_at) / Fold change /veh TMEM136 (11760407_x_at) / RFU CLDN22 /// WWC2 (11732394_at) / Fold change /veh CLDN22 /// WWC2 (11732394_at) / RFU HLA-DPB1 (11760878_x_at) / Fold change /veh HLA-DPB1 (11760878_x_at) / RFU SPINT1 (11716480_a_at) / Fold change /veh SPINT1 (11716480_a_at) / RFU GAP43 (11754022_s_at) / Fold change /veh GAP43 (11754022_s_at) / RFU A4GNT (11735810_at) / Fold change /veh A4GNT (11735810_at) / RFU PRB3 (11715151_x_at) / Fold change /veh PRB3 (11715151_x_at) / RFU TUBB4B (11761932_at) / Fold change /veh TUBB4B (11761932_at) / RFU CAPN14 (11732068_a_at) / Fold change /veh CAPN14 (11732068_a_at) / RFU TMCC2 (11721928_a_at) / Fold change /veh TMCC2 (11721928_a_at) / RFU IRGQ (11745062_a_at) / Fold change /veh IRGQ (11745062_a_at) / RFU FAM174B (11720279_a_at) / Fold change /veh FAM174B (11720279_a_at) / RFU TMPRSS4 (11748680_a_at) / Fold change /veh TMPRSS4 (11748680_a_at) / RFU FAM212B (11763350_a_at) / Fold change /veh FAM212B (11763350_a_at) / RFU PLEKHG5 (11743358_a_at) / Fold change /veh PLEKHG5 (11743358_a_at) / RFU ZSCAN30 (11745921_a_at) / Fold change /veh ZSCAN30 (11745921_a_at) / RFU CMKLR1 (11741424_a_at) / Fold change /veh CMKLR1 (11741424_a_at) / RFU LOC101060620 /// MAPK8IP1 (11723275_at) / Fold change /veh LOC101060620 /// MAPK8IP1 (11723275_at) / RFU SPTSSB (11747773_x_at) / Fold change /veh SPTSSB (11747773_x_at) / RFU PRSS12 (11739890_at) / Fold change /veh PRSS12 (11739890_at) / RFU BIN1 (11741810_x_at) / Fold change /veh BIN1 (11741810_x_at) / RFU WNT11 (11732464_a_at) / Fold change /veh WNT11 (11732464_a_at) / RFU C10orf10 (11716521_a_at) / Fold change /veh C10orf10 (11716521_a_at) / RFU C5orf56 (11738089_at) / Fold change /veh C5orf56 (11738089_at) / RFU CYB561 (11721691_x_at) / Fold change /veh CYB561 (11721691_x_at) / RFU ANKRD19P (11752326_a_at) / Fold change /veh ANKRD19P (11752326_a_at) / RFU OR2T12 /// OR2T33 /// OR2T8 (11738714_s_at) / Fold change /veh OR2T12 /// OR2T33 /// OR2T8 (11738714_s_at) / RFU VCAN (11748164_a_at) / Fold change /veh VCAN (11748164_a_at) / RFU JSRP1 (11732532_at) / Fold change /veh JSRP1 (11732532_at) / RFU KRTAP10-11 (11738290_x_at) / Fold change /veh KRTAP10-11 (11738290_x_at) / RFU MYO3A (11730013_a_at) / Fold change /veh MYO3A (11730013_a_at) / RFU EBF3 (11725865_a_at) / Fold change /veh EBF3 (11725865_a_at) / RFU CAMK2N1 (11719241_x_at) / Fold change /veh CAMK2N1 (11719241_x_at) / RFU C5orf56 (11738088_a_at) / Fold change /veh C5orf56 (11738088_a_at) / RFU OLFML3 (11715873_a_at) / Fold change /veh OLFML3 (11715873_a_at) / RFU LOC100653217 /// NTM (11731650_a_at) / Fold change /veh LOC100653217 /// NTM (11731650_a_at) / RFU MAPK11 (11762145_a_at) / Fold change /veh MAPK11 (11762145_a_at) / RFU FIZ1 (11724087_x_at) / Fold change /veh FIZ1 (11724087_x_at) / RFU OASL (11726364_x_at) / Fold change /veh OASL (11726364_x_at) / RFU SOX15 (11748057_x_at) / Fold change /veh SOX15 (11748057_x_at) / RFU CD79A (11719716_a_at) / Fold change /veh CD79A (11719716_a_at) / RFU HIST1H1D (11736915_at) / Fold change /veh HIST1H1D (11736915_at) / RFU CASKIN2 (11723855_a_at) / Fold change /veh CASKIN2 (11723855_a_at) / RFU LOC730098 (11760151_x_at) / Fold change /veh LOC730098 (11760151_x_at) / RFU OR4N2 (11742367_at) / Fold change /veh OR4N2 (11742367_at) / RFU PRRT2 (11749266_a_at) / Fold change /veh PRRT2 (11749266_a_at) / RFU SNX32 (11753110_a_at) / Fold change /veh SNX32 (11753110_a_at) / RFU CDHR5 (11726645_a_at) / Fold change /veh CDHR5 (11726645_a_at) / RFU RCAN1 (11760418_a_at) / Fold change /veh RCAN1 (11760418_a_at) / RFU FAM167A (11723789_a_at) / Fold change /veh FAM167A (11723789_a_at) / RFU FAM26E (11764081_at) / Fold change /veh FAM26E (11764081_at) / RFU ISYNA1 (11749810_s_at) / Fold change /veh ISYNA1 (11749810_s_at) / RFU ACY1 (11761880_at) / Fold change /veh ACY1 (11761880_at) / RFU 11764098_at / Fold change /veh 11764098_at / RFU SAMD14 (11745864_x_at) / Fold change /veh SAMD14 (11745864_x_at) / RFU NPB (11741838_a_at) / Fold change /veh NPB (11741838_a_at) / RFU TMPRSS6 (11731388_a_at) / Fold change /veh TMPRSS6 (11731388_a_at) / RFU KRTAP10-2 (11738614_at) / Fold change /veh KRTAP10-2 (11738614_at) / RFU ARHGAP8 /// PRR5-ARHGAP8 (11727945_x_at) / Fold change /veh ARHGAP8 /// PRR5-ARHGAP8 (11727945_x_at) / RFU KRTAP5-7 /// NADSYN1 (11734609_at) / Fold change /veh KRTAP5-7 /// NADSYN1 (11734609_at) / RFU RASL12 (11751679_a_at) / Fold change /veh RASL12 (11751679_a_at) / RFU CDKN2B (11736163_a_at) / Fold change /veh CDKN2B (11736163_a_at) / RFU PRF1 (11729649_at) / Fold change /veh PRF1 (11729649_at) / RFU, ZNF638 /// ZNF638-IT1 / Fold change vs veh, ZNF638 /// ZNF638-IT1 / RFU, PANK3 / Fold change vs veh, PANK3 / RFU, SH3YL1 / Fold change vs veh, SH3YL1 / RFU, ZEB2 / Fold change vs veh, ZEB2 / RFU, NRIP1 / Fold change vs veh, NRIP1 / RFU, PTTG1IP / Fold change vs veh, PTTG1IP / RFU, CAPN2 / Fold change vs veh, CAPN2 / RFU, MED14 / Fold change vs veh, MED14 / RFU, SNORA58 / Fold change vs veh, SNORA58 / RFU, C1orf63 / Fold change vs veh, C1orf63 / RFU, LRRFIP1 / Fold change vs veh, LRRFIP1 / RFU, NDUFAF7 / Fold change vs veh, NDUFAF7 / RFU, SLC12A2 / Fold change vs veh, SLC12A2 / RFU, IBTK / Fold change vs veh, IBTK / RFU, ESF1 / Fold change vs veh, ESF1 / Fold change vs veh, TMEM50B / RFU, TAOK1 / Fold change vs veh, TAOK1 / RFU, ACBD3 / Fold change vs veh, ACBD3 / RFU, TMA16 / Fold change vs veh, TMA16 / RFU, RWDD3 / Fold change vs veh, RWDD3 / RFU, BCAT1 / Fold change vs veh, BCAT1 / RFU, EDEM3 / Fold change vs veh, EDEM3 / RFU, TMEM33 / Fold change vs veh, TMEM33 / RFU, WDR75 / Fold change vs veh, WDR75 / RFU, AHCTF1 / Fold change vs veh, AHCTF1 / RFU, TFRC / Fold change vs veh, TFRC / RFU, ZDHHC17 / Fold change vs veh, ZDHHC17 / RFU, NOM1 / Fold change vs veh, NOM1 / RFU, ARL8B / Fold change vs veh, ARL8B / RFU, ZBTB11 / Fold change vs veh, ZBTB11 / RFU, TAMM41 / Fold change vs veh, TAMM41 / RFU, KIAA1704 /// LOC100996395 / Fold change vs veh, KIAA1704 /// LOC100996395 / RFU, ING1 / Fold change vs veh, ING1 / RFU, TRMT61B / Fold change vs veh, TRMT61B / RFU, FUBP3 / Fold change vs veh, FUBP3 / RFU, TP53 / Fold change vs veh, TP53 / RFU, TNKS2 / Fold change vs veh, TNKS2 / RFU, ZFP14 / Fold change vs veh, ZFP14 / RFU, ACTR2 / Fold change vs veh, ACTR2 / RFU, PPP3R1 / Fold change vs veh, PPP3R1 / RFU, PIK3R1 / Fold change vs veh, PIK3R1 / RFU, HNRNPA1 / Fold change vs veh, HNRNPA1 / RFU, RNF170 / Fold change vs veh, RNF170 / RFU, ZNF28 / Fold change vs veh, ZNF28 / RFU, RNGTT / Fold change vs veh, RNGTT / RFU, OGT / Fold change vs veh, OGT / RFU, BRD1 / Fold change vs veh, BRD1 / RFU, MARS / Fold change vs veh, MARS / RFU, ZNF655 / Fold change vs veh, ZNF655 / RFU, FAHD1 / Fold change vs veh, FAHD1 / RFU, BDP1 / Fold change vs veh, BDP1 / RFU, LRRCC1 / Fold change vs veh, LRRCC1 / RFU, ARID1A / Fold change vs veh, ARID1A / RFU, ZNF146 / Fold change vs veh, ZNF146 / RFU, ZNF330 / Fold change vs veh, ZNF330 / RFU, GPN3 / Fold change vs veh, GPN3 / RFU, C9orf123 / Fold change vs veh, C9orf123 / RFU, N4BP2L2 / Fold change vs veh, N4BP2L2 / RFU, ARFIP1 / Fold change vs veh, ARFIP1 / RFU, FAM179B / Fold change vs veh, FAM179B / RFU, BCL10 / Fold change vs veh, BCL10 / RFU, UHRF1BP1L / Fold change vs veh, UHRF1BP1L / RFU, BET1 / Fold change vs veh, BET1 / RFU, CNOT2 / Fold change vs veh, CNOT2 / RFU, ZNF268 / Fold change vs veh, ZNF268 / Fold change vs veh, ZNF507 / RFU, DGCR2 / Fold change vs veh, DGCR2 / RFU, WDSUB1 / Fold change vs veh, WDSUB1 / Fold change vs veh, HSP90B1 /// MIR3652 / RFU, ADSS / Fold change vs veh, ADSS / RFU, GK / Fold change vs veh, GK / RFU, ZNF148 / Fold change vs veh, ZNF148 / RFU, TAF9 / Fold change vs veh, TAF9 / RFU, SLC1A5 / Fold change vs veh, SLC1A5 / RFU, SLMO2 / Fold change vs veh, SLMO2 / RFU, ABCC4 / Fold change vs veh, ABCC4 / RFU, LOC101060439 /// RAP1B / Fold change vs veh, LOC101060439 /// RAP1B / RFU, RFX7 / Fold change vs veh, RFX7 / RFU, GTPBP10 / Fold change vs veh, GTPBP10 / RFU, CNEP1R1 / Fold change vs veh, CNEP1R1 / RFU, BIVM-ERCC5 /// ERCC5 / Fold change vs veh, BIVM-ERCC5 /// ERCC5 / RFU, ILF3 / Fold change vs veh, ILF3 / RFU 11762660_at / Fold change /veh 11762660_at / RFU VCAN (11757783_s_at) / Fold change /veh VCAN (11757783_s_at) / RFU DDX43 (11728927_at) / Fold change /veh DDX43 (11728927_at) / RFU KRT8 (11758188_x_at) / Fold change /veh KRT8 (11758188_x_at) / RFU NKD1 (11759106_at) / Fold change /veh NKD1 (11759106_at) / RFU SRD5A1 (11742802_a_at) / Fold change /veh SRD5A1 (11742802_a_at) / RFU TPSAB1 /// TPSB2 (11721975_s_at) / Fold change /veh TPSAB1 /// TPSB2 (11721975_s_at) / RFU GSTM3 (11746129_a_at) / Fold change /veh GSTM3 (11746129_a_at) / RFU IL23R (11737362_x_at) / Fold change /veh IL23R (11737362_x_at) / RFU TMEM51 (11727254_a_at) / Fold change /veh TMEM51 (11727254_a_at) / RFU PIWIL2 (11732686_x_at) / Fold change /veh PIWIL2 (11732686_x_at) / RFU ORM1 (11744905_x_at) / Fold change /veh ORM1 (11744905_x_at) / RFU CCDC152 (11743942_at) / Fold change /veh CCDC152 (11743942_at) / RFU ECM1 (11717891_a_at) / Fold change /veh ECM1 (11717891_a_at) / RFU IL23R (11748794_a_at) / Fold change /veh IL23R (11748794_a_at) / RFU TNFAIP8L3 (11732012_x_at) / Fold change /veh TNFAIP8L3 (11732012_x_at) / RFU MBOAT4 (11741988_at) / Fold change /veh MBOAT4 (11741988_at) / RFU 11764193_at / Fold change /veh 11764193_at / RFU TMEM53 (11763286_at) / Fold change /veh TMEM53 (11763286_at) / RFU MAGEB2 (11727129_at) / Fold change /veh MAGEB2 (11727129_at) / RFU TMEM200A (11744735_a_at) / Fold change /veh TMEM200A (11744735_a_at) / RFU CCDC152 (11751479_a_at) / Fold change /veh CCDC152 (11751479_a_at) / RFU FAM211A (11726209_a_at) / Fold change /veh FAM211A (11726209_a_at) / RFU RGS16 (11746705_a_at) / Fold change /veh RGS16 (11746705_a_at) / RFU VCAN (11755009_s_at) / Fold change /veh VCAN (11755009_s_at) / RFU RHOB (11743442_s_at) / Fold change /veh RHOB (11743442_s_at) / RFU RGS16 (11720943_a_at) / Fold change /veh RGS16 (11720943_a_at) / RFU RGS16 (11720944_at) / Fold change /veh RGS16 (11720944_at) / RFU, VPS4B / Fold change vs veh, VPS4B / RFU, CREB1 / Fold change vs veh, CREB1 / RFU, DNAJC13 / Fold change vs veh, DNAJC13 / RFU, GNAQ / Fold change vs veh, GNAQ / RFU, CDK5R1 / Fold change vs veh, CDK5R1 / RFU, ZRANB3 / Fold change vs veh, ZRANB3 / RFU, CUL4A / Fold change vs veh, CUL4A / RFU, CCNY / Fold change vs veh, CCNY / RFU, UFL1 / Fold change vs veh, UFL1 / RFU, COG3 / Fold change vs veh, COG3 / RFU, DIAPH2 / Fold change vs veh, DIAPH2 / RFU, SKA2 / Fold change vs veh, SKA2 / RFU, AFF3 / Fold change vs veh, AFF3 / RFU, LMF1 / Fold change vs veh, LMF1 / RFU, IPO11 / Fold change vs veh, IPO11 / RFU, DFFB / Fold change vs veh, DFFB / RFU, FOXP1 / Fold change vs veh, FOXP1 / RFU, CARD8 / Fold change vs veh, CARD8 / RFU, STRN3 / Fold change vs veh, STRN3 / RFU, ADK / Fold change vs veh, ADK / RFU, RASSF2 / Fold change vs veh, RASSF2 / RFU, WIPF1 / Fold change vs veh, WIPF1 / RFU, LARP1B / Fold change vs veh, LARP1B / RFU, RASA1 / Fold change vs veh, RASA1 / RFU, RB1 / Fold change vs veh, RB1 / RFU, PPFIA1 / Fold change vs veh, PPFIA1 / RFU, MAT2A / Fold change vs veh, MAT2A / RFU, CCT5 / Fold change vs veh, CCT5 / RFU, WDR92 / Fold change vs veh, WDR92 / RFU, CUX1 / Fold change vs veh, CUX1 / RFU, TTC7A / Fold change vs veh, TTC7A / RFU, TMEM135 / Fold change vs veh, TMEM135 / RFU, DEPTOR / Fold change vs veh, DEPTOR / RFU, CPM / Fold change vs veh, CPM / RFU, DNAJB6 / Fold change vs veh, DNAJB6 / RFU, CACNA2D3 / Fold change vs veh, CACNA2D3 / RFU, DTX4 / Fold change vs veh, DTX4 / RFU, TFCP2 / Fold change vs veh, TFCP2 / RFU, GMCL1 /// GMCL1P1 / Fold change vs veh, GMCL1 /// GMCL1P1 / RFU, AEBP2 / Fold change vs veh, AEBP2 / RFU, SNHG1 /// SNORD22 /// SNORD25 /// SNORD26 /// SNORD27 /// SNORD28 /// SNORD29 /// SNORD31 / Fold change vs veh, SNHG1 /// SNORD22 /// SNORD25 /// SNORD26 /// SNORD27 /// SNORD28 /// SNORD29 /// SNORD31 / Fold change (Aza/veh), C12orf56 (ProbeSet 11735607_a_at) / Fold change (ACY-1035/veh), C12orf56 (ProbeSet 11735607_a_at) / Fold change (Aza/veh), FGFR1OP (ProbeSet 11751329_s_at) / Fold change (ACY-1035/veh), FGFR1OP (ProbeSet 11751329_s_at) / Fold change (Aza/veh), VPS36 (ProbeSet 11739960_a_at) / Fold change (ACY-1035/veh), VPS36 (ProbeSet 11739960_a_at) / RFU SYPL1 (11715823_x_at) / Fold change /veh SYPL1 (11715823_x_at) / RFU IGFBP7 (11715501_s_at) / Fold change /veh IGFBP7 (11715501_s_at) / RFU REEP3 (11722064_at) / Fold change /veh REEP3 (11722064_at) / RFU IGLL1 (11728026_x_at) / Fold change /veh IGLL1 (11728026_x_at): dose or concentration left out as unconfirmed
Conditions: ProbeSet 11757268_x_at; LIST B

Nc1ncn([C@@H]2O[C@H](CO)[C@@H](O)[C@H]2O)c(=O)n1 [azacitidine]
Fold change vs veh, HNRNPA1: 0.91
